Reference: ChEMBL document CHEMBL3112395, “Synthesis and structure-activity relationship studies of N-terminal analogues of the antimicrobial peptide tridecaptin A(1)” (J Med Chem, 2014)
Converted amounts (≈) assume the structure as drawn.

Columns and labels:
[1] = Cytotoxicity against HEK293 cells assessed as growth inhibition after 48 hrs by MTT assay; type: cell-based; conditions: human, read-out: MIC
Acinetobacter baumannii = assay: Antibacterial activity against Acinetobacter baumannii ATCC 19606 assessed as growth inhibition by broth dilution method; type: functional
Pseudomonas aeruginosa = assay: Antibacterial activity against Pseudomonas aeruginosa ATCC 27853 assessed as growth inhibition by broth dilution method; type: functional
Listeria monocytogenes = assay: Antibacterial activity against Listeria monocytogenes ATCC […] assessed as growth inhibition by broth dilution method; type: functional
Enterococcus faecium = assay: Antibacterial activity against Enterococcus faecium ATCC 19434 assessed as growth inhibition by broth dilution method; type: functional
Campylobacter jejuni = assay: Antibacterial activity against Campylobacter jejuni NCTC 11168 assessed as growth inhibition by broth dilution method; type: functional
Escherichia coli = assay: Antibacterial activity against Escherichia coli ATCC 25922 assessed as growth inhibition by broth dilution method; type: functional
[2] = Hemolytic activity in rabbit erythrocytes at 83 ug/mL after 30 mins relative to control; type: ADME, cell-based, Oryctolagus cuniculus, Erythrocyte; conditions: read-out: Activity
Enterococcus faecalis = assay: Antibacterial activity against Enterococcus faecalis ATCC 29212 assessed as growth inhibition by broth dilution method; type: functional
Salmonella enterica = assay: Antibacterial activity against Salmonella enterica ATCC 13311 assessed as growth inhibition by broth dilution method; type: functional
Staphylococcus aureus = assay: Antibacterial activity against Staphylococcus aureus ATCC 29213 assessed as growth inhibition by broth dilution method; type: functional
Klebsiella pneumoniae = assay: Antibacterial activity against Klebsiella pneumoniae ATCC 13883 assessed as growth inhibition by broth dilution method; type: functional

Row | SMILES | MIC (Acinetobacter baumannii) | MIC (Pseudomonas aeruginosa) | MIC (Listeria monocytogenes) | MIC (Enterococcus faecium) | MIC (Campylobacter jejuni) | MIC (Escherichia coli) | MIC (Enterococcus faecalis) | MIC (Salmonella enterica) | MIC (Staphylococcus aureus) | MIC (Klebsiella pneumoniae) | MCC at 48 h [1] | hemolysis at 0.5 h, 83 ug/mL [2]
1 | CC[C@H](C)CC[C@@H](O)CC(=O)N[C@@H](C(=O)N[C@H](CCN)C(=O)NCC(=O)N[C@H](CO)C(=O)N[C@H](Cc1c[nH]c2ccccc12)C(=O)N[C@@H](CO)C(=O)N[C@@H](CCN)C(=O)N[C@H](CCN)C(=O)N[C@@H](Cc1ccccc1)C(=O)N[C@@H](CCC(=O)O)C(=O)N[C@H](C(=O)N[C@@H](C(=O)N[C@@H](C)C(=O)O)[C@@H](C)CC)C(C)C)C(C)C | 12.5 µg/mL (≈ 8.06 µM) | 50 µg/mL (≈ 32.2 µM) | 50 µg/mL (≈ 32.2 µM) | > 100 µg/mL | 1.56 µg/mL (≈ 1.01 µM) | 3.13 µg/mL (≈ 2.02 µM) | > 100 µg/mL | 6.25 µg/mL (≈ 4.03 µM) | > 100 µg/mL | 3.13 µg/mL (≈ 2.02 µM) | 200 µg/mL | 3.2%
2 | CC[C@@H](C)CC[C@@H](O)CC(=O)N[C@@H](C(=O)N[C@H](CCN)C(=O)NCC(=O)N[C@H](CO)C(=O)N[C@H](Cc1c[nH]c2ccccc12)C(=O)N[C@@H](CO)C(=O)N[C@@H](CCN)C(=O)N[C@H](CCN)C(=O)N[C@@H](Cc1ccccc1)C(=O)N[C@@H](CCC(=O)O)C(=O)N[C@H](C(=O)N[C@@H](C(=O)N[C@@H](C)C(=O)O)[C@@H](C)CC)C(C)C)C(C)C | 12.5 µg/mL (≈ 8.06 µM) | 50 µg/mL (≈ 32.2 µM) | 100 µg/mL (≈ 64.5 µM) | > 100 µg/mL | 3.13 µg/mL (≈ 2.02 µM) | 3.13 µg/mL (≈ 2.02 µM) | > 100 µg/mL | 6.25 µg/mL (≈ 4.03 µM) | > 100 µg/mL | 6.25 µg/mL (≈ 4.03 µM) | – | –
3 | CC[C@H](C)[C@@H](NC(=O)[C@@H](NC(=O)[C@H](CCC(=O)O)NC(=O)[C@H](Cc1ccccc1)NC(=O)[C@@H](CCN)NC(=O)[C@H](CCN)NC(=O)[C@H](CO)NC(=O)[C@@H](Cc1c[nH]c2ccccc12)NC(=O)[C@@H](CO)NC(=O)CNC(=O)[C@@H](CCN)NC(=O)[C@H](N)C(C)C)C(C)C)C(=O)N[C@@H](C)C(=O)O | > 100 µg/mL | 100 µg/mL (≈ 71.7 µM) | > 100 µg/mL | > 100 µg/mL | > 100 µg/mL | 100 µg/mL (≈ 71.7 µM) | > 100 µg/mL | 100 µg/mL (≈ 71.7 µM) | > 100 µg/mL | 50 µg/mL (≈ 35.9 µM) | – | 0.5%

The next lines start with results.

Row | MIC (Acinetobacter baumannii) | MIC (Pseudomonas aeruginosa) | MIC (Listeria monocytogenes) | MIC (Enterococcus faecium) | MIC (Campylobacter jejuni) | MIC (Escherichia coli) | MIC (Enterococcus faecalis) | MIC (Salmonella enterica) | MIC (Staphylococcus aureus) | MIC (Klebsiella pneumoniae) | SMILES | MCC at 48 h [1] | hemolysis at 0.5 h, 83 ug/mL [2]
4 | 25 µg/mL (≈ 16.1 µM) | 50 µg/mL (≈ 32.2 µM) | 100 µg/mL (≈ 64.5 µM) | > 100 µg/mL | 1.56 µg/mL (≈ 1.01 µM) | 6.25 µg/mL (≈ 4.03 µM) | > 100 µg/mL | 6.25 µg/mL (≈ 4.03 µM) | > 100 µg/mL | 6.25 µg/mL (≈ 4.03 µM) | CC[C@H](C)CC[C@H](O)CC(=O)N[C@@H](C(=O)N[C@H](CCN)C(=O)NCC(=O)N[C@H](CO)C(=O)N[C@H](Cc1c[nH]c2ccccc12)C(=O)N[C@@H](CO)C(=O)N[C@@H](CCN)C(=O)N[C@H](CCN)C(=O)N[C@@H](Cc1ccccc1)C(=O)N[C@@H](CCC(=O)O)C(=O)N[C@H](C(=O)N[C@@H](C(=O)N[C@@H](C)C(=O)O)[C@@H](C)CC)C(C)C)C(C)C | – | –
5 | 50 µg/mL (≈ 32.2 µM) | 100 µg/mL (≈ 64.5 µM) | > 100 µg/mL | > 100 µg/mL | 3.13 µg/mL (≈ 2.02 µM) | 12.5 µg/mL (≈ 8.06 µM) | > 100 µg/mL | 25 µg/mL (≈ 16.1 µM) | > 100 µg/mL | 12.5 µg/mL (≈ 8.06 µM) | CC[C@@H](C)CC[C@H](O)CC(=O)N[C@@H](C(=O)N[C@H](CCN)C(=O)NCC(=O)N[C@H](CO)C(=O)N[C@H](Cc1c[nH]c2ccccc12)C(=O)N[C@@H](CO)C(=O)N[C@@H](CCN)C(=O)N[C@H](CCN)C(=O)N[C@@H](Cc1ccccc1)C(=O)N[C@@H](CCC(=O)O)C(=O)N[C@H](C(=O)N[C@@H](C(=O)N[C@@H](C)C(=O)O)[C@@H](C)CC)C(C)C)C(C)C | – | –
